What follows are compounds tested on mono-methyl arginine in RKO cells (assay: RKO Methylation Assay, In Cell Western for mono-methyl arginine and DNA content). Details: Homo sapiens, 72 hours, percent activation of mono-methyl arginine signal.
Format: cell-based
Text: RKO Methylation Assay RKO adherent cells were purchased from ATCC (American Type Culture Collection), Manassas, Va., USA. DMEM/Glutamax medium, penicillin-streptomycin, heat inactivated fetal bovine serum, 0.05% trypsin and D-PBS were purchased from Life Technologies, Grand Island, N.Y., USA. Odyssey blocking buffer, 800CW goat anti-rabbit IgG (H+L) antibody, and Licor Odyssey infrared scanner were purchased from Licor Biosciences, Lincoln, Nebr., USA. Mono-methyl arginine antibody was purchased from Cell Signaling Technology, Danvers, Mass., USA. Methanol was purchased from VWR, Franklin, Mass., USA. 10% Tween 20 was purchased from KPL, Inc., Gaithersburg, Md., USA. DRAQ5 was purchased from Biostatus Limited, Leicestershire, UK. RKO adherent cells were maintained in growth medium (DMEM/Glutamax medium supplemented with 10% v/v heat inactivated fetal bovine serum and 100 units/mL penicillin-streptomycin) and cultured at 37° C. under 5% CO2. Cell Treatment, in Cell Western (ICW) for Detection of Mono-Methyl Arginine and DNA Content. RKO cells were seeded in assay medium at a concentration of 20,000 cells per mL to a poly-D-lysine coated 384 well culture plate (BD Biosciences 356697) with 50 μL per well. Compound (100 nL) from a 96-well source plate was added directly to 384 well cell plate. Plates were incubated at 37° C., 5% CO2 for 72 hours. After three days of incubation, plates were brought to room temperature outside of the incubator for ten minutes and blotted on paper towels to remove cell media. 50 μL of ice cold 100% methanol was added directly to each well and incubated for 30 min at room temperature. After 30 min, plates were transferred to a Biotek EL406 plate washer and washed 2 times with 100 μL per well of wash buffer (IX PBS). Next 60 μL per well of Odyssey blocking buffer (Odyssey Buffer with 0.1% Tween 20 (v/v)) were added to each plate and incubated 1 hour at room temperature. Blocking buffer was removed and 20 μL per well of primary antibody was added (mono-methyl arginine diluted 1:200 in Odyssey buffer with 0.1% Tween 20 (v/v)) and plates were incubated overnight (16 hours) at 4° C. Plates were washed 5 times with 100 μL per well of wash buffer. Next 20 μL per well of secondary antibody was added (1:200 800CW goat anti-rabbit IgG (H+L) antibody, 1:1000 DRAQ5 (Biostatus limited) in Odyssey buffer with 0.1% Tween 20 (v/v)) and incubated for 1 hour at room temperature. The plates were washed 5 times with 100 μL per well wash buffer then 2 times with 100 μL per well of water. Plates were allowed to dry at room temperature then imaged on the Licor Odyssey machine which measures integrated intensity at 700 nm and 800 nm wavelengths. Both 700 and 800 channels were scanned. Calculations: First, the ratio for each well was determined by: Each plate included fourteen control wells of DMSO only treatment (minimum activation) as well as fourteen control wells for maximum activation treated with 20 μM of a reference compound. The average of the ratio values for each control type was calculated and used to determine the percent activation for each test well in the plate. Reference compound was serially diluted three-fold in DMSO for a total of nine test concentrations, beginning at 20 μM. Percent activation was determined and EC30 curves were generated using triplicate wells per concentration of compound.

Row | SMILES | EC30
1 | CN(CCN)Cc1c[nH]nc1-c1cncnc1 [Compound 4] | ≥ 12 µM
2 | CN(CCN)Cc1c[nH]nc1-c1cnn(C)c1 [Compound 8] | ≥ 12 µM
3 | CN(CCN)Cc1c[nH]nc1-c1ccc2scnc2c1 [Compound 9] | 3.01 to 12 µM
4 | CN(CCN)Cc1c[nH]nc1-c1cn[nH]c1 [Compound 12] | ≥ 12 µM
5 | CN(CCN)Cc1c[nH]nc1-c1cnc2[nH]ccc2c1 [Compound 13] | 3.01 to 12 µM
6 | CN(CCN)Cc1c[nH]nc1-c1cc[nH]n1 [Compound 14] | ≥ 12 µM
7 | CN(CCN)Cc1c[nH]nc1-c1ccnn1C [Compound 15] | ≥ 12 µM
8 | CCn1cc(-c2n[nH]cc2CN(C)CCN)cn1 [Compound 16] | ≥ 12 µM
9 | CN(CCN)Cc1c[nH]nc1-c1cnn(-c2ccccc2)c1 [Compound 17] | ≤ 3 µM
10 | CN(CCN)Cc1c[nH]nc1-c1cnn(CCO)c1 [Compound 18] | ≥ 12 µM
11 | CN(CCN)Cc1c[nH]nc1-c1ccc2cnn(C)c2c1 [Compound 19, N^1-methyl-N^1-((3-(1-methyl-1H-indazol-6-yl)-1H-pyrazol-4-yl)methyl)ethane-1,2-diamine] | 3.01 to 12 µM
12 | CN(CCN)Cc1c[nH]nc1-c1ccc2ncnn2c1 [Compound 20] | ≥ 12 µM
13 | CN(CCN)Cc1c[nH]nc1-c1ccc2nccn2c1 [Compound 21, N^1-((3-(imidazo[1,2-a]pyridin-6-yl)-1H-pyrazol-4-yl)methyl)-N^1-methylethane-1,2-diamine] | 3.01 to 12 µM
14 | CC(C)n1cc(-c2n[nH]cc2CN(C)CCN)cn1 [Compound 22] | 3.01 to 12 µM
15 | CC(C)Cn1cc(-c2n[nH]cc2CN(C)CCN)cn1 [Compound 23, N^1-((2′-isobutyl-3,4′-bi(1H-pyrazol)-4-yl)methyl)-N^1-methylethane-1,2-diamine] | ≤ 3 µM
16 | CN(CCN)Cc1c[nH]nc1-c1cnn(Cc2ccccc2)c1 [Compound 24, N^1-((1′-benzyl-3,4′-bi(1H-pyrazol)-4-yl)methyl)-N^1-methylethane-1,2-diamine] | ≤ 3 µM
17 | Cc1n[nH]c(C)c1-c1n[nH]cc1CN(C)CCN [Compound 25] | ≥ 12 µM
18 | CN(CCN)Cc1c[nH]nc1-c1ccc2[nH]ncc2c1 [Compound 27, N^1-((3-(1H-indazol-5-yl)-1H-pyrazol-4-yl)methyl)-N^1-methylethane-1,2-diamine] | ≤ 3 µM
19 | CN(CCN)Cc1c[nH]nc1-c1cnc(C2CC2)nc1 [Compound 28] | ≥ 12 µM
